Experimental data published in ChEMBL document CHEMBL3112510, “Optimization, pharmacophore modeling and 3D-QSAR studies of sipholanes as breast cancer migration and proliferation inhibitors” (Eur J Med Chem, 2014).

Experiments:
[1] = test system: MDA-MB-231; experiment: Antiproliferative activity against human MDA-MB-231 cells after 72 hrs by MTT assay; conditions: MDA-MB-231, 72 h
[2] = test system: MDA-MB-231; experiment: Antimigratory activity in human MDA-MB-231 cells after 24 hrs by wound healing assay; conditions: MDA-MB-231, 24 h
[3] = test system: MCF7; experiment: cells; conditions: Homo sapiens, MCF7, 72 h

SMILES | IC50 [1] [µM] | IC50 [2] [µM] | IC50 ([2]; read-out: pIC50 (converted)) [µM] | IC50 [3] [µM]
CC1=CC[C@H]2[C@H](CC[C@]2(C)O)C(C)(C)[C@@H]1CC[C@H]1[C@]2(C)CC[C@@H](O)O[C@H]2CC[C@@]1(C)O | > 50 | 48 | 48 | > 50
CC1(C)CC[C@](C)(O)[C@H]2C[C@H](O)[C@]3(C)O[C@]3(CC[C@H]3[C@]4(C)CC[C@H](O)C(C)(C)O[C@H]4CC[C@@]3(C)O)[C@H]21 | > 50 | > 50 | 92.9 | > 50
CC1=CC[C@H]2[C@H](CC[C@]2(C)O)C(C)(C)[C@@H]1CC[C@H]1[C@]2(C)CC[C@H](OC(=O)CCC(=O)O)C(C)(C)O[C@H]2CC[C@@]1(C)O | 27.9 | 18 | 18 | > 50
CC1(C)O[C@H]2CC[C@@](C)(O)[C@@H](CC[C@@H]3C(CO)=CC[C@H]4[C@H](CC[C@]4(C)O)C3(C)C)[C@]2(C)CCC1=O | > 50 | > 50 | 77.8 | > 50
CC1=CC[C@H]2[C@@H]1CC=C(C)[C@@H](CC[C@H]1[C@]3(C)CC[C@H](O)C(C)(C)O[C@H]3CC[C@@]1(C)O)C2(C)C | > 50 | 35.3 | 35.3 | > 50
CC1=CC[C@H]2[C@H](CC[C@]2(C)O)C(C)(C)[C@@H]1CC[C@H]1[C@]2(C)CC[C@H](OCc3ccccc3)C(C)(C)O[C@H]2CC[C@@]1(C)O | 29.1 | 12.2 | 12.2 | > 50
CC1=CC[C@H]2[C@H](CC[C@]2(C)O)C(C)(C)[C@@H]1CC[C@H]1[C@]2(C)CC[C@H](OC(=O)NCc3ccccc3)C(C)(C)O[C@H]2CC[C@@]1(C)O | 40.3 | 13.9 | 13.9 | 24.5
CC1=CC[C@H]2[C@H](CC[C@]2(C)O)C(C)(C)[C@@H]1CC[C@H]1[C@]2(C)CC[C@H](OC(=O)c3ccc(Cl)cc3)C(C)(C)O[C@H]2CC[C@@]1(C)O | 10.3 | 5.3 | 5.3 | 24.1
CC1=CCC2C(CC[C@@]2(C)O)C(C)(C)C1CC[C@@H]1[C@@]2(C)CC[C@@H](O)C(C)(C)O[C@@H]2CC[C@]1(C)O (some centres undefined) [SIPHOLENOL A] | > 50 | 37.5 | 37.5 | 44.5
CC1=C(CC[C@H]2[C@]3(C)CC[C@H](O)C(C)(C)O[C@H]3CC[C@@]2(C)O)[C@](C)(C/C=C/C(C)(C)OO)[C@H](O)CC1 | > 50 | > 50 | 54 | 27.4
CC(=O)O[C@H]1CC[C@]2(C)[C@H](CC[C@@](C)(O)[C@H]2CC[C@@H]2C(C)=CC[C@H]3[C@H](CC[C@]3(C)OC(C)=O)C2(C)C)OC1(C)C | 26.2 | 20.3 | 20.3 | 39.2
CC1(C)O[C@H]2CC[C@@](C)(O)[C@@H](CC[C@@H]3C(C=O)=CC[C@H]4[C@H](CC[C@]4(C)O)C3(C)C)[C@]2(C)CCC1=O | > 50 | 42.6 | 42.6 | > 50
CC1=CC[C@H]2[C@@H]1CC=C(C)[C@@H](CC[C@H]1[C@]3(C)CC[C@H](OC(=O)CCC(=O)O)C(C)(C)O[C@H]3CC[C@@]1(C)O)C2(C)C | 29.6 | 21 | – | > 50
C[C@@H]1CC[C@H]2[C@@H](/C1=C/C[C@H]1[C@]3(C)CCC(=O)C(C)(C)O[C@H]3CC[C@@]1(C)O)C(C)(C)CC[C@]2(C)O | > 50 | 28 | 28 | > 50
C[C@H]1C(=O)C[C@@H]2[C@@](C)(O)CC[C@]2(O)C(C)(C)[C@@H]1CC[C@H]1[C@]2(C)CCC(=O)C(C)(C)O[C@H]2CC[C@@]1(C)O | > 50 | 38.3 | 38.3 | > 50
CC1(C)O[C@H]2CC[C@@](C)(O)[C@@H](CC[C@@H]3C(C=O)=CC[C@H]4[C@H](CC[C@]4(C)O)C3(C)C)[C@]2(C)CC[C@@H]1O | > 50 | > 50 | 51.2 | > 50
CC1=CC[C@H]2[C@@H]1CC=C(C)[C@@H](CC[C@H]1[C@]3(C)CC[C@H](OC(=O)c4ccccc4)C(C)(C)O[C@H]3CC[C@@]1(C)O)C2(C)C | 18.4 | 7.2 | 7.19 | 23.1
CC1=CC[C@H]2[C@H](CC[C@]2(C)O)C(C)(C)[C@@H]1CC[C@H]1[C@]2(C)CC/C(=N/O)C(C)(C)O[C@H]2CC[C@@]1(C)O | 42.7 | > 50 | 52.7 | 46.8
CC(=O)O[C@H]1CC[C@]2(C)[C@H](CC[C@@](C)(O)[C@H]2CC[C@@H]2C(C)=CC[C@@H]3C(C)=CC[C@@H]3C2(C)C)OC1(C)C | 39.2 | 16 | 16 | 43.5
CC1=C(CC[C@H]2[C@]3(C)CC[C@H](O)C(C)(C)O[C@H]3CC[C@@]2(C)O)[C@@H]2[C@H](C[C@H]1C(=O)O)[C@@](C)(O)CCC2(C)C | > 50 | 45 | 45 | 39.8
CC1=CC[C@H]2[C@H](CC[C@]2(C)O)C(C)(C)[C@@H]1CC[C@H]1[C@]2(C)CC[C@H](OC(=O)c3ccc(C)cc3)C(C)(C)O[C@H]2CC[C@@]1(C)O | 33.4 | 11.8 | 11.8 | > 50
CC1=CC[C@H]2[C@H](CC[C@]2(C)O)C(C)(C)[C@@H]1CC[C@H]1[C@]2(C)CC/C(=N/OC(=O)c3ccccc3)C(C)(C)O[C@H]2CC[C@@]1(C)O | 27.4 | 28.5 | 28.5 | 25.6
CC1=CC[C@H]2[C@@H]1CC=C(C)[C@@H](CC[C@H]1[C@]3(C)CC[C@H](OC(=O)c4ccncc4)C(C)(C)O[C@H]3CC[C@@]1(C)O)C2(C)C | 19.1 | 9.5 | 9.51 | > 50
C=C(C)C(CC[C@@]1(C)C(CC[C@H]2[C@]3(C)CC[C@H](O)C(C)(C)O[C@H]3CC[C@@]2(C)O)=C(C)CC[C@H]1O)OO (some centres undefined) [SIPHONELLINOL E] | > 50 | 39 | 39 | 31.2
CC1=CC[C@H]2[C@H](CC[C@]2(C)O)C(C)(C)[C@@H]1CC[C@H]1[C@]2(C)CC[C@H](OC(=O)c3ccncc3)C(C)(C)O[C@H]2CC[C@@]1(C)O | 18 | 10.6 | 10.6 | 25.3
CC1=CC[C@H]2[C@@H]1CC=C(C)[C@@H](CC[C@H]1[C@]3(C)CC[C@H](OC(=O)c4ccc(C)cc4)C(C)(C)O[C@H]3CC[C@@]1(C)O)C2(C)C | 32.7 | 12.3 | 12.3 | > 50
CC1(C)O[C@H]2CC[C@@](C)(O)[C@@H](CC[C@H]3C(C)(C)[C@@]4(O)CC[C@](C)(O)[C@H]4C[C@H]4O[C@]43C)[C@]2(C)CC[C@@H]1O | > 50 | > 50 | 36.2 | > 50
CC1=CC[C@H]2[C@@H]1CC=C(C)[C@@H](CCC1=C(C)CC[C@@H]3OC(C)(C)[C@@H](O)CC[C@@]13C)C2(C)C | > 50 | 46.7 | 46.7 | > 50
C[C@@H]1C(=O)C[C@H]2[C@@H](/C1=C/C[C@H]1[C@]3(C)CC[C@H](O)C(C)(C)O[C@H]3CC[C@@]1(C)O)C(C)(C)CC[C@]2(C)O | > 50 | > 50 | 69 | > 50
CC1=CC[C@H]2[C@@H]([C@@H]1CC[C@H]1[C@]3(C)CC[C@H](O)C(C)(C)O[C@H]3CC[C@@]1(C)O)C(C)(C)CC[C@]2(C)O | > 50 | 42 | 42 | > 50
